Data from patent US20260250289A1, “BICYCLIC HETEROCYCLES AND THEIR USE AS WRN INHIBITORS” (Novartis AG, priority 2022, published 2026).
pIC50: −log10 of the molar value.

Columns and labels:
[1] = target: T1, WRN helicase (aa N517-P1238) (Homo sapiens, UniProt Q14191); assay: WRN ATPase assay (DNA dependent ATP hydrolysis, ADP-Glo); assay type: biochemical; conditions: 3 hours pre-incubation, 300 micromolar ATP, FLAP26 DNA; geometric mean of at least 2
T1 construct: The core helicase motif of the WRN protein (aa N517-P1238) was produced for this assay; His (N); ZZ (N); 3C protease cleavage site (N); made in house; host or cells: Sf21 insect cells (baculovirus; virus and BIICs made in SF9)
T1 sequence (Q14191 517-1238): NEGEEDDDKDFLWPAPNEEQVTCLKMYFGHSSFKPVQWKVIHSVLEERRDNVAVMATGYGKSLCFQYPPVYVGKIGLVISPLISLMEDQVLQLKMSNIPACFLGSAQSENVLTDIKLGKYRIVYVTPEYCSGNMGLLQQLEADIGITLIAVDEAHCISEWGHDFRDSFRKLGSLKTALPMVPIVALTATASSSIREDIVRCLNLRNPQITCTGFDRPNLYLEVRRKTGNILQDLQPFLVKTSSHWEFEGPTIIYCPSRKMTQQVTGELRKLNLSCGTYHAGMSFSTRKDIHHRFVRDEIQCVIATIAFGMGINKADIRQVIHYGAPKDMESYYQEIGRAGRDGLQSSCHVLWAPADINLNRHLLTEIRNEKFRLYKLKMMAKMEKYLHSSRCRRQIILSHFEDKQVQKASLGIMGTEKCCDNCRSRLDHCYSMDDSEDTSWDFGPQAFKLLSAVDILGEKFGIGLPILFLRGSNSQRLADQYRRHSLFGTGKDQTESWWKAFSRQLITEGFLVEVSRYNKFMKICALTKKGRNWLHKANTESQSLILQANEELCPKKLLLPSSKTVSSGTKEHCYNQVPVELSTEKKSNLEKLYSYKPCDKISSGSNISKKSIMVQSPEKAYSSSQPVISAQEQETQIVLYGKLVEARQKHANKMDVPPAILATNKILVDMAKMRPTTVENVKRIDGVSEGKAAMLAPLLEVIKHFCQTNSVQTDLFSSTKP
How it was run: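 DNA-dependent ATP hydrolysis detected as ADP by ADP-Glo luminescence, using 300 μM ATP, 0.2 nM FLAP26 substrate and 10 nM WRN aa N517-P1238 (Tris pH 7.5 buffer, 2 mM MgCl2, 50 mM NaCl). IC50s fitted from normalized duplicate half-log dilutions; reported as geometric means of at least 2 replicates.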

DLD1-WRN-KO cells = assay: Proliferation assay DLD1-WRN-KO (CellTiterGlo, off-target effects); assay type: cell-based; conditions: 96 hours, geometric mean of at least 2
How it was run: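 DLD1 cells with CRISPR knockout of WRN were exposed overnight-seeded to eight 3-fold compound dilutions (0.1% DMSO) for 96 h at 37 °C. Viability was read as ATP by CellTiterGlo luminescence against a day-0 plate, giving GI50 and residual viability at top concentration.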

SW48 cells = assay: Proliferation assay SW48 (CellTiterGlo); assay type: cell-based; conditions: Homo sapiens, SW48, 96 h, SW48 colon carcinoma cells, 96 hours, CellTiterGlo; geometric mean of at least 2; read-out: Proliferation Assay SW48 GI50
How it was run: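 SW48 cells, 2,000/well, treated after overnight seeding with eight 3-fold compound dilutions (0.1% DMSO) for 96 hours at 37° C. Viability read as ATP by CellTiterGlo luminescence, normalised to a day-0 plate and vehicle to give % growth; GI50 is geometric mean of ≥2 independent replicates.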

Row | SMILES | pIC50 [1] | GI50 (DLD1-WRN-KO cells) [µM] | GI50 (SW48 cells) [µM]
1 | CCc1c(N2CCN(C(=O)c3c(F)ccc(F)c3O)CC2)c(=O)n2nc(C3=CCOCC3)nc2n1CC(=O)Nc1ccc(C(F)(F)F)cc1C [Example 68, 2-(6-(4-(3,6-difluoro-2-hydroxybenzoyl)piperazin-1-yl)-2-(3,6-dihydro-2H-pyran-4-yl)-5-ethyl-7-oxo-[1,2,4]triazolo[1,5-a]pyrimidin-4(7H)-yl)-N-(2-methyl-4-(trifluoromethyl)phenyl)acetamide] | 7.70 | > 10 | 0.1
2 | CC(=O)N1CCN(c2c(C)n(CC(=O)Nc3ccc(C(F)(F)F)cc3)c3nc(C4=CCOCC4)nn3c2=O)CC1 [Example 69, 2-(6-(4-acetylpiperazin-1-yl)-2-(3,6-dihydro-2H-pyran-4-yl)-5-methyl-7-oxo-[1,2,4]triazolo[1,5-a]pyrimidin-4(7H)-yl)-N-(4-(trifluoromethyl)phenyl)acetamide] | 6.30 | > 10 | 4
3 | CC(=O)N(C)Cc1ccc(-c2nc3n(CC(=O)Nc4ccc(C(F)(F)F)cc4)c(C)c(N4CCN(C(C)=O)CC4)c(=O)n3n2)cc1 [Example 70, 2-(6-(4-acetylpiperazin-1-yl)-5-methyl-2-(4-((N-methylacetamido)methyl)phenyl)-7-oxo-[1,2,4]triazolo[1,5-a]pyrimidin-4(7H)-yl)-N-(4-(trifluoromethyl)phenyl)acetamide] | 7.15 | > 10 | 0.9
4 | CCc1ccc(NC(=O)Cn2c(C)c(N3CCN(C(C)=O)CC3)c(=O)n3nc(C4=CCOCC4)nc23)cc1C(F)(F)F [Example 72, 2-(6-(4-acetylpiperazin-1-yl)-2-(3,6-dihydro-2H-pyran-4-yl)-5-methyl-7-oxo-[1,2,4]triazolo[1,5-a]pyrimidin-4(7H)-yl)-N-(4-ethyl-3-(trifluoromethyl)phenyl)acetamide] | 7.00 | > 10 | 2
5 | CC(=O)N1CCN(c2c(C)n(CC(=O)Nc3ccc(S(F)(F)(F)(F)F)cc3Cl)c3nc(C4=CCOCC4)nn3c2=O)CC1 [Example 73, 2-(6-(4-acetylpiperazin-1-yl)-2-(3,6-dihydro-2H-pyran-4-yl)-5-methyl-7-oxo-[1,2,4]triazolo[1,5-a]pyrimidin-4(7H)-yl)-N-(2-chloro-4-(pentafluoro-l6-sulfaneyl)phenyl)acetamide] | 7.00 | > 10 | 2

Further lines, results first:

Row | pIC50 [1] | GI50 (DLD1-WRN-KO cells) [µM] | GI50 (SW48 cells) [µM] | SMILES
6 | 7.05 | > 10 | 5 | CC(=O)N1CC=C(c2nc3n(CC(=O)Nc4ccc(S(F)(F)(F)(F)F)cc4)c(C)c(N4CCN(C(C)=O)CC4)c(=O)n3n2)CC1 [Example 71, 2-(2-(1-acetyl-1,2,3,6-tetrahydropyridin-4-yl)-6-(4-acetylpiperazin-1-yl)-5-methyl-7-oxo-[1,2,4]triazolo[1,5-a]pyrimidin-4(7H)-yl)-N-(4-(pentafluoro-l6-sulfaneyl)phenyl)acetamide]
7 | 6.70 | > 10 | 4 | COC(=O)N1CC=C(c2nc3n(CC(=O)Nc4ccc(Cl)c(C(F)(F)F)c4)c(C)c(N4CCN(C(C)=O)CC4)c(=O)n3n2)CC1 [Example 77, methyl 4-(6-(4-acetylpiperazin-1-yl)-4-(2-((4-chloro-3-(trifluoromethyl)phenyl)amino)-2-oxoethyl)-5-methyl-7-oxo-4,7-dihydro-[1,2,4]triazolo[1,5-a]pyrimidin-2-yl)-5,6-dihydropyridine-1(2H)-carboxylate]
8 | 6.70 | > 10 | 3 | CC(=O)N1CCN(c2c(C)n(CC(=O)Nc3ccc(S(F)(F)(F)(F)F)cc3)c3nc(C4=CCOCC4)nn3c2=O)CC1 [Example 78, 2-(6-(4-acetylpiperazin-1-yl)-2-(3,6-dihydro-2H-pyran-4-yl)-5-methyl-7-oxo-[1,2,4]triazolo[1,5-a]pyrimidin-4(7H)-yl)-N-(4-(pentafluoro-l6-sulfaneyl)phenyl)acetamide]
